As usually defined, the EC50 is the midpoint of the concentration-response curve. One may read the Ki as the dissociation constant of the complex between target and ligand, obtained from inhibition or displacement.

Numbered stars: 1 amine (or outer) side, 2 acyl side, 3 side chain; on linkers, the order of the positions; unused ones are H or OH. Square brackets hold non-standard residues; d marks the D form. Side chains are listed from the residue outwards. Peptide text beside a SMILES is read from it. * marks the point of attachment. C20 diacid = O=C(O)CCCCCCCCCCCCCCCCCCC(=O)*; C18 diacid = O=C(O)CCCCCCCCCCCCCCCCC(=O)*; γGlu = O=C(O)[C@H](CCC(=O)[*:2])N[*:1]; αMeL = CC(C)C[C@](C)(N)C(=O)O; AEEA = NCCOCCOCC(=O)O; Aib = CC(C)(N)C(=O)O Some results are limits rather than exact numbers.

For experiment [1], the target named is T1, gastric inhibitory peptide receptor (GIPR) (Homo sapiens, UniProt P48546).
T1 sequence (P48546 22-466): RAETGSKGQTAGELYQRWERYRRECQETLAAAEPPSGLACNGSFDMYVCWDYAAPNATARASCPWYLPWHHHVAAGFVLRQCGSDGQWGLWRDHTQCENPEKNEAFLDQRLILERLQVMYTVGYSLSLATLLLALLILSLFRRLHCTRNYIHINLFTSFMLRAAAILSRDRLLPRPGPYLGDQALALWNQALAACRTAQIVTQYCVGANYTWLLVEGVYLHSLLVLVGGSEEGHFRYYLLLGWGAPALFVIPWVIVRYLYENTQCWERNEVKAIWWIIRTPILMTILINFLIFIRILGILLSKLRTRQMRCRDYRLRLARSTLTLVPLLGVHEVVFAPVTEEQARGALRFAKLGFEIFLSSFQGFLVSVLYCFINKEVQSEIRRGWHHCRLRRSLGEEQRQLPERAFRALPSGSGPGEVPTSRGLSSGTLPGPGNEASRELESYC
The experiment in a line: cAMP pharmacological functional assay in presence of casein, hGIPR. The format is cell-based. To be noted: HEK293 cells expressing hGIPR, 0.1% Casein, geometric mean; read-out: hGIPR cAMP Rel EC50 nM (SEM, n).

The target of experiment [2] is human GLP-1 receptor (GLP-1R) (Homo sapiens, UniProt P43220). As to the kind of experiment: cAMP pharmacological functional assay in presence of casein, hGLP-1R. It is filed as cell-based. To be noted: HEK293 cells expressing hGLP-1R, 0.1% Casein, geometric mean; read-out: hGLP1R cAMP Rel EC50 nM (SEM, n).
For experiment [3], the target named is T2, human GLP-1R (Homo sapiens, UniProt P43220). The experiment in a line: GLP-1R HEK293 cell membrane [35S]GTPγS binding assay. It is filed as biochemical. More on the design: expressed in transfected cells; host or cells: HEK293 cells expressing human GLP-1R; membranes. To be noted: HEK293 cell membranes expressing human GLP-1R, [35S]GTPγS binding; read-out: hGLP1R GTPgS Rel EC50 nM (SEM, n). How it is done: The GLP-1 receptor is a G-protein coupled receptor that increases GTP-bound Gas upon ligand induced receptor activation. The potency of peptides to stimulate-GLP-1R induced activation of Gac is determined using preparations of purified membranes from HEK293 cells expressing the human GLP-1R. […] The test peptides are solubilized in DMSO and diluted in reaction buffer containing 5 μg of membrane in 20 mM HEPES pH 7.4, 50 mM NaCl, 5 mM MgCl2, 40 μg/ml saponin, 0.1% BSA, and […] ^35S-labeled GTPTS for 30 minutes at room temperature. Reactions are terminated by addition of 0.2% Nonidet β-40 detergent containing rabbit anti-Gas polyclonal antibody and 0.5 mg of anti-rabbit polyvinyltoluene beads. Mixtures are developed for 30 minutes, centrifuged at 80×g for 10 minutes, and counted for 1 minute/well using a MicroBeta TriLux instrument. Peptide concentration-response curves are fit to a four-parameter logistic model to calculate potency as an EC50.
On the technique in general: GTPγS is a poorly hydrolysed GTP analogue; its binding reports G protein activation.

Another experiment concerns the target T3, human GIP receptor (Homo sapiens, UniProt P48546).
T3 construct: expressed in transfected cells; crude membranes
T3 sequence (P48546 22-466): T1 sequence (P48546 22-466)
As to the kind of experiment: [125I]-GIP binding (SPA), human GIP receptor. To be noted: read-out: hGIPR Ki, nM (SEM, n).

The target in experiment [4] is T2, human GLP-1R. As to the kind of experiment: [125I]-GLP-1 binding (SPA), human GLP-1 receptor. Further details: expressed in transfected cells; crude membranes. To be noted: read-out: hGLP1R Ki, (nM) (SEM, n). In short, it runs like this: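 Membranes: hypotonic lysis (50 mM Tris HCl, pH 7.5, protease inhibitors), Potter-Elvehjem homogenization, high-speed pellet (35000×g 1 h or 25000×g 30 min, 4° C.). Buffer: 25 mM HEPES pH 7.4, 2.5 mM CaCl2, 1 mM MgCl2. Four-parameter IC50 fit; Ki as geometric mean ± SEM.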

Another experiment deals with T4, human Gcg receptor (Homo sapiens, UniProt P47871).
T4 construct: expressed in transfected cells; crude membranes
As to the kind of experiment: [125I]-Glucagon binding (SPA), human Gcg receptor. To be noted: read-out: hGLcgR Ki, nM (SEM, n). In short, it runs like this: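 Scintillation counts are taken after membranes and WGA beads incubate and settle for 12 hours at room temperature. Buffer is 25 mM HEPES, pH 7.4, with CaCl2, MgCl2, bacitracin and Tween-20. Ki values, from four-parameter IC50 fits, are geometric means over independent days.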

T2 sequence (P43220 24-463): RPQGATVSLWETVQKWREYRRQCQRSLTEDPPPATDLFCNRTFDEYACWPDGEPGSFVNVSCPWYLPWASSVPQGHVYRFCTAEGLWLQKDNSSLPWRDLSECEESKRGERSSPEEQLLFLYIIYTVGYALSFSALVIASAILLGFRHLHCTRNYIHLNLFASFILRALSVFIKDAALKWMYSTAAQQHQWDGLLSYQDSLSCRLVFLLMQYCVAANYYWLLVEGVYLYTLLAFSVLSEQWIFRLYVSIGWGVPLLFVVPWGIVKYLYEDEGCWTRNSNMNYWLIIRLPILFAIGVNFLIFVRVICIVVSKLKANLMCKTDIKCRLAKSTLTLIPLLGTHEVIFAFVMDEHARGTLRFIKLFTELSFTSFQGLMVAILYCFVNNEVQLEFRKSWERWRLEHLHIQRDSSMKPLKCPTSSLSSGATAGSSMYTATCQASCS
human GLP-1 receptor (GLP-1R), sequence (P43220 24-463): as above
T4 sequence (P47871 26-477): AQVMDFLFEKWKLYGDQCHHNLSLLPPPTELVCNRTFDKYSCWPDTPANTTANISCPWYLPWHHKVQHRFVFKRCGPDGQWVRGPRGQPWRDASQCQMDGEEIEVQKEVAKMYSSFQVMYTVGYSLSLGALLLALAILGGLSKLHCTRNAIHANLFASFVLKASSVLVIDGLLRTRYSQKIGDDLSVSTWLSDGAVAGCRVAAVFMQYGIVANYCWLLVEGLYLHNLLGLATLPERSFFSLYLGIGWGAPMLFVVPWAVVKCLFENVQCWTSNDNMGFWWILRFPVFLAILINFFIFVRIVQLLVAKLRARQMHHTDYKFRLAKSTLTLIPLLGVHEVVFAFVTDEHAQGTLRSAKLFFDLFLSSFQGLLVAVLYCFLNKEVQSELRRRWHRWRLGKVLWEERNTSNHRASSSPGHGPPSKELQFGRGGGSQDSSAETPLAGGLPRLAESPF

Turning to `CC[C@H](C)[C@H](NC(=O)[C@H](CC(C)C)NC(=O)[C@H](Cc1ccc(O)cc1)NC(=O)[C@H](CCC(=O)O)NC(=O)[C@@H](NC(=O)[C@H](Cc1ccccc1)NC(=O)[C@H](C)NC(=O)C(C)(C)NC(=O)[C@H](CCC(N)=O)NC(=O)[C@H](C)NC(=O)[C@H](CCCCNC(=O)COCCOCCNC(=O)COCCOCCNC(=O)CC[C@H](NC(=O)CCCCCCCCCCCCCCCCCCC(=O)O)C(=O)O)NC(=O)[C@H](CCCCN)NC(=O)[C@H](CC(=O)O)NC(=O)[C@H](CC(C)C)NC(=O)[C@](C)(CC(C)C)NC(=O)[C@@H](NC(=O)[C@H](CO)NC(=O)[C@H](Cc1ccc(O)cc1)NC(=O)[C@H](CC(=O)O)NC(=O)[C@H](CO)NC(=O)[C@@H](NC(=O)[C@H](Cc1ccccc1)NC(=O)[C@@H](NC(=O)CNC(=O)[C@H](CCC(=O)O)NC(=O)C(C)(C)NC(=O)[C@@H](N)Cc1ccc(O)cc1)[C@@H](C)O)[C@@H](C)O)[C@@H](C)CC)[C@@H](C)CC)C(=O)N[C@@H](C)C(=O)NCC(=O)NCC(=O)N1CCC[C@H]1C(=O)N[C@@H](CO)C(=O)N[C@@H](CO)C(=O)NCC(=O)N[C@@H](C)C(=O)N1CCC[C@H]1C(=O)N1CCC[C@H]1C(=O)N1CCC[C@H]1C(=O)N[C@@H](CO)C(N)=O` [Example 324] (H-Y[Aib]EGTFTSDYSI[αMeL]LDKK([AEEA-AEEA-γGlu-C20 diacid])AQ[Aib]AFIEYLIAGGPSSGAPPPS-NH2), the half-maximal effective concentration (EC50) in experiment [1] turned out to be 0.0374 nM; in experiment [2] it was 0.0926 nM; on human GLP-1R [3] it was 0.475 nM. Further, the values for the Ki on human GIP receptor, at human GLP-1R [4] and at human Gcg receptor were 0.0278 nM, 0.609 nM and 449 nM, respectively.
For `CC[C@H](C)[C@H](NC(=O)[C@H](CC(C)C)NC(=O)[C@H](Cc1ccc(O)cc1)NC(=O)[C@H](CCC(=O)O)NC(=O)[C@@H](NC(=O)[C@H](Cc1ccccc1)NC(=O)[C@H](C)NC(=O)C(C)(C)NC(=O)[C@H](CCC(N)=O)NC(=O)[C@H](C)NC(=O)[C@H](CCCCNC(=O)COCCOCCNC(=O)COCCOCCNC(=O)CC[C@H](NC(=O)CCCCCCCCCCCCCCCCCCC(=O)O)C(=O)O)NC(=O)[C@H](CCCCN)NC(=O)[C@H](CC(=O)O)NC(=O)[C@H](CC(C)C)NC(=O)[C@H](CC(C)C)NC(=O)[C@@H](NC(=O)[C@H](CO)NC(=O)[C@H](Cc1ccc(O)cc1)NC(=O)[C@H](CC(=O)O)NC(=O)[C@H](CO)NC(=O)[C@@H](NC(=O)[C@](C)(Cc1ccccc1F)NC(=O)[C@@H](NC(=O)CNC(=O)[C@H](CCC(=O)O)NC(=O)C(C)(C)NC(=O)[C@@H](N)Cc1ccc(O)cc1)[C@@H](C)O)[C@@H](C)O)[C@@H](C)CC)[C@@H](C)CC)C(=O)N[C@@H](CCC(=O)O)C(=O)NCC(=O)NCC(=O)N1CCC[C@H]1C(=O)N[C@@H](CO)C(=O)N[C@@H](CO)C(=O)NCC(=O)N[C@@H](C)C(=O)N1CCC[C@H]1C(=O)N1CCC[C@H]1C(=O)N1CCC[C@H]1C(=O)N[C@@H](CO)C(N)=O` [Example 325], the concentration giving a half-maximal response (EC50) came out at 0.0301 nM in experiment [1], 0.0586 nM in experiment [2] and 0.414 nM on human GLP-1R [3]. The Ki on human GIP receptor was 0.0209 nM; at human GLP-1R [4], 0.475 nM; on human Gcg receptor, 13 nM.
As for `CC[C@H](C)[C@H](NC(=O)[C@H](CC(C)C)NC(=O)[C@H](Cc1ccc(O)cc1)NC(=O)[C@H](CCC(=O)O)NC(=O)[C@@H](NC(=O)[C@H](Cc1ccccc1)NC(=O)[C@H](C)NC(=O)C(C)(C)NC(=O)[C@H](CCC(N)=O)NC(=O)[C@H](C)NC(=O)[C@H](CCCCNC(=O)COCCOCCNC(=O)COCCOCCNC(=O)CC[C@H](NC(=O)CCCCCCCCCCCCCCCCCCC(=O)O)C(=O)O)NC(=O)[C@H](CCCCN)NC(=O)[C@H](CC(=O)O)NC(=O)[C@H](CC(C)C)NC(=O)[C@H](CC(C)C)NC(=O)[C@@H](NC(=O)[C@H](CO)NC(=O)[C@H](Cc1ccc(O)cc1)NC(=O)[C@H](CC(=O)O)NC(=O)[C@H](CO)NC(=O)[C@@H](NC(=O)[C@H](Cc1ccccc1)NC(=O)[C@@H](NC(=O)CNC(=O)[C@H](CCC(=O)O)NC(=O)C(C)(C)NC(=O)[C@@H](N)Cc1ccccc1)[C@@H](C)O)[C@@H](C)O)[C@@H](C)CC)[C@@H](C)CC)C(=O)N[C@@H](CCC(=O)O)C(=O)NCC(=O)NCC(=O)N1CCC[C@H]1C(=O)N[C@@H](CO)C(=O)N[C@@H](CO)C(=O)NCC(=O)N[C@@H](C)C(=O)N1CCC[C@H]1C(=O)N1CCC[C@H]1C(=O)N1CCC[C@H]1C(=O)N[C@@H](CO)C(N)=O` [Example 326] (H-F[Aib]EGTFTSDYSILLDKK([AEEA-AEEA-γGlu-C20 diacid])AQ[Aib]AFIEYLIEGGPSSGAPPPS-NH2), the half-maximal effective concentration (EC50) in experiment [1] was determined as 0.0754 nM; in experiment [2] it was 0.0369 nM; on human GLP-1R [3], 0.663 nM. Also, the Ki at human GIP receptor came to 0.251 nM; on human GLP-1R [4] it was 2.92 nM; on human Gcg receptor it was 207 nM.
For `CC[C@H](C)[C@H](NC(=O)[C@H](CC(C)C)NC(=O)[C@H](Cc1ccc(O)cc1)NC(=O)[C@H](CCC(=O)O)NC(=O)[C@@H](NC(=O)[C@H](Cc1ccccc1)NC(=O)[C@H](C)NC(=O)C(C)(C)NC(=O)[C@H](CCC(N)=O)NC(=O)[C@H](C)NC(=O)[C@H](CCCCNC(=O)COCCOCCNC(=O)COCCOCCNC(=O)CC[C@H](NC(=O)CCCCCCCCCCCCCCCCC(=O)O)C(=O)O)NC(=O)[C@H](CCCCN)NC(=O)[C@H](CC(=O)O)NC(=O)[C@H](CC(C)C)NC(=O)[C@](C)(CC(C)C)NC(=O)[C@@H](NC(=O)[C@H](CO)NC(=O)[C@H](Cc1ccc(O)cc1)NC(=O)[C@H](CC(=O)O)NC(=O)[C@H](CO)NC(=O)[C@@H](NC(=O)[C@H](Cc1ccccc1)NC(=O)[C@@H](NC(=O)CNC(=O)[C@H](CCC(=O)O)NC(=O)C(C)(C)NC(=O)[C@@H](N)Cc1ccccc1)[C@@H](C)O)[C@@H](C)O)[C@@H](C)CC)[C@@H](C)CC)C(=O)N[C@@H](CCC(=O)O)C(=O)N[C@@H](C)C(=O)NCC(=O)N1CCC[C@H]1C(=O)N[C@@H](CO)C(=O)N[C@@H](CO)C(=O)NCC(=O)N[C@@H](C)C(=O)N1CCC[C@H]1C(=O)N1CCC[C@H]1C(=O)N1CCC[C@H]1C(=O)N[C@@H](CO)C(N)=O` [Example 328] (H-F[Aib]EGTFTSDYSI[αMeL]LDKK([AEEA-AEEA-γGlu-C18 diacid])AQ[Aib]AFIEYLIEAGPSSGAPPPS-NH2), the EC50 in experiment [1] was 0.0965 nM; in experiment [2], 0.117 nM; on human GLP-1R [3], 0.481 nM. The inhibitory constant (Ki) is 0.136 nM at human GIP receptor, 3.98 nM at human GLP-1R [4] and over 1450 nM at human Gcg receptor.

Source of the values: patent US12252524B2, “GIP/GLP1 co-agonist compounds” (Eli Lilly and Company, priority 2018, dated 2025).
